These results are taken from US7763636B2, “N-(arylalkyl)-1H-pyrrolopyridine-2-carboxamide derivatives, preparation and therapeutic use thereof” (Sanofi-Aventis, priority 2005, dated 2010).

Molecules are shown by their SMILES.

In series [1] the target is T1, TRPV1 receptors (Mus musculus, UniProt Q704Y3).
T1 construct: from tissue; host or cells: cornea of the living mouse (C fibres)
Put plainly: Test of mouse corneal irritation (capsaicin ocular instillation). The note with it: 1 mg/kg (po), pretreatment time t = 1 h, n = 10, 2 μl of 160 μM capsaicin in the eye, rubbing counted for 2 min. Format: in vivo. The method, then:
Test of Mouse Corneal Irritation
The irritant nature of capsaicin is readily assessed on the cornea since this organ is one of the organs most densely innervated with C fibres. In this context, from preliminary experiments, the application of a very small amount of capsaicin (2 μl at a concentration of 160 μM) to the surface of the cornea of an animal leads to a certain number of stereotypical behavioral traits associated with irritation, which are easy to record. Among these, the following are noted: blinking of the eye, rubbing of the instilled eye with the ipsilateral front paw, rubbing of the face with both front paws, scratching of the ipsilateral face with the hind paw. […] Its aspect is moreover also normal. […]
In practice, the test product is administered orally and, with a delay (pretreatment time: t) that depends on the pharmacokinetic data, the animal receives an ocular instillation of 2 μl of a 160 μM capsaicin solution prepared as indicated above. During a 2-minute observation following the instillation, the number of times the instilled eye is rubbed with the ipsilateral front paw is recorded.
For a given animal, the percentage of protection is calculated as follows: P=100−((number of scratching actions observed/mean number of scratching actions for the group treated with the solvent)×100) […]

T1 sequence (Q704Y3 whole entry): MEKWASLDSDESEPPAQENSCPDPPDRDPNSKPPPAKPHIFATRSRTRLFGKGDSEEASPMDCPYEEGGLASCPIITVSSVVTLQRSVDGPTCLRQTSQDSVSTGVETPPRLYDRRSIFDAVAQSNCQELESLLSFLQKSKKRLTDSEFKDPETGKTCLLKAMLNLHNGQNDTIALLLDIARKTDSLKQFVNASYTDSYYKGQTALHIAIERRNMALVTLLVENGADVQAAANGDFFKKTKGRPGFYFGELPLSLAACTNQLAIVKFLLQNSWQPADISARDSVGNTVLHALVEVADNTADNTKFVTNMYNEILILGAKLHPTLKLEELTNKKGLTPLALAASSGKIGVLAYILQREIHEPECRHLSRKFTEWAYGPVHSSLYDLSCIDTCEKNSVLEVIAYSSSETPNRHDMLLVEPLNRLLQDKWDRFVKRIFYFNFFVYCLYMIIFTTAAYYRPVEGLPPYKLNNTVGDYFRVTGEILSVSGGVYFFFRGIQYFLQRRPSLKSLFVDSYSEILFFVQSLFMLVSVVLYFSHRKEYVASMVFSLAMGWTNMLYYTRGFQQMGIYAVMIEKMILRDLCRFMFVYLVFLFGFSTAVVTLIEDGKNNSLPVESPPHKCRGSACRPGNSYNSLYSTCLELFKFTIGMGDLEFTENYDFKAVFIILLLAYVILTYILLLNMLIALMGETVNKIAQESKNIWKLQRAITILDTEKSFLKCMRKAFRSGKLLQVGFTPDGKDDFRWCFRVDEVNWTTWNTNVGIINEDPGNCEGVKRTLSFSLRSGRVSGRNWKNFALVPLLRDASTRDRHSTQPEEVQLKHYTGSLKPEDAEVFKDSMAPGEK

Broadly, the melting point is the temperature of the solid-liquid transition. `Cn1ccc2cc(NC(=O)c3cc4ccncc4n3Cc3cccc(F)c3)ccc21` gave a melting point of 213 to 214.5 °C.
Same read-out and setting: the figure for `Cn1ccc2cc(NC(=O)c3cc4cc(C(F)(F)F)cnc4n3Cc3cccc(F)c3)ccc21` is 229 to 231 °C; for `Cc1nc2cc(NC(=O)c3cc4cc(F)cnc4n3Cc3cccc(F)c3)ccc2n1C` it is 226 to 228 °C.
On the same count and under the same terms, the figure for `Cc1nc2cc(NC(=O)c3cc4cccnc4n3-c3ccccc3)ccc2n1C` is 286 to 288 °C.
On the same count and under the same terms, the value for `Cc1nc2cc(NC(=O)c3cc4cnccc4n3Cc3cccc(F)c3)ccc2n1C` was 263 to 264 °C.
Compound `Cn1cnc2cc(NC(=O)c3cc4ncccc4n3Cc3cccc(F)c3)ccc21` had a melting point of 277 to 281 °C.
The compound `Cc1nc2cc(NC(=O)c3cc4ncccc4n3Cc3cccc(F)c3)ccc2s1` displayed a melting point of 263 to 265 °C.
The compound `Cc1nc2cc(NC(=O)c3cc4ncccc4n3Cc3cccc(F)c3)ccc2n1C` returned a melting point of 245 to 247 °C.
Same read-out and setting: the value for `Cc1nc2cc(NC(=O)c3cc4cc(Cl)ncc4n3Cc3cccc(F)c3)ccc2n1C` was 240 to 242 °C.
Turning to `Cn1cnc2cc(NC(=O)c3cc4cc(F)cnc4n3Cc3cccc(F)c3)ccc21` [Compound 15, N-(1-methyl-1H-benzimidazol-5-yl)-5-fluoro-1-[(3-fluorophenyl)methyl]-1H-pyrrolo[2,3-b]pyridine-2-carboxamide], the “% P (percentage of protection)” value in series [1] is reported as 50% - (1 h).
